In patent US20100022509A1, “Inhibitors of MshC and Homologs Thereof, and Methods of Identifying Same” (priority 2006, published 2010):
Like-named read-outs stand apart in the source and are kept apart here.

Assays:
Type in all cases: biochemical, M. tuberculosis
MshC [1] = molecular target: T1, MshC (Mycobacterium tuberculosis, UniProt P9WJM9); experiment: biochemical
T1 sequence (P9WJM9 1-414): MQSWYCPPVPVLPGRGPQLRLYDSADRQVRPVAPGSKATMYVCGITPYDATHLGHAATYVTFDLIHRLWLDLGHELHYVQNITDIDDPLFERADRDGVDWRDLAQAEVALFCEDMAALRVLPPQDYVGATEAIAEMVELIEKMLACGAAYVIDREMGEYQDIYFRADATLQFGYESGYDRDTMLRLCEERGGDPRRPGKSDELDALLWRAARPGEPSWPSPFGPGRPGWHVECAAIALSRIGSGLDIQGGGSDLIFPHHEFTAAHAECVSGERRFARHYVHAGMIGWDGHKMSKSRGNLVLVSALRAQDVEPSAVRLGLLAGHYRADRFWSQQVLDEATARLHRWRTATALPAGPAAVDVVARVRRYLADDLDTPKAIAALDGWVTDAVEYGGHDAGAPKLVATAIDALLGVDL

MshC [2] = molecular target: T1, MshC; experiment: Inhibition studies of MshC ligase activity (HEPES pH 7.5, HPLC); conditions: for % inhibition: 50 μM GlcN-Ins and 70 μM Cys
MshC [3] = molecular target: T1, MshC; conditions: for activity as alternative substrate to Cys, in words: 80 μM to 1.6 mM
[4] = 80-1600 μM, 70 μM L-Cys and 50 μM GlcN-Ins

Q: For `O=C(NCCCN1CCOCC1)c1ccc2c(c1)N(Cc1cccc(Cl)c1)C(=O)c1ccccc1S2` [Inhibitor 1937], which “inhibition of MshC in words, 1,3-diaminopropyl residue with remote amino residue capable of protonation” value (shortened to “inhibition of MshC in words … of protonation”) (MshC [1]) is on record?
A: Its value is “measurable inhibition”.

Q: What about the “inhibition of MshC in words, Z is a benzyl moiety bearing one or more halogens” value (MshC [1]) of the same molecule?
A: The value was “Measurable inhibition”.

Q: And the IC50 (MshC [1]; IC50, μM)?
A: Its IC50 is 780 ± 120 µM.

Q: And the “inhibition of MshC in words, compounds grouped by X” value (“inhibition of MshC in words … by X” below) (MshC [1]; X=S, X=SO, X=SO2)?
A: The value was “Significant inhibition”.

Q: How did the “inhibition of MshC in words … of protonation” value (MshC [1]) turn out when `CN(CCCNC(=O)c1ccc2c(c1)N(Cc1cccc(Cl)c1)C(=O)c1ccccc1[S+]2[O-])C1CCCCC1` (stereo not drawn) [Inhibitor 1938] was run?
A: Its value is “measurable inhibition”.

Q: What about the “inhibition of MshC in words, Z is a benzyl moiety bearing one or more halogens” value (MshC [1]) of the same molecule?
A: The value was “Measurable inhibition”.

Q: What about the IC50 (MshC [1]; IC50, μM) of the same molecule?
A: The IC50 was 102 ± 4 µM.

Q: What about the “inhibition of MshC in words … by X” value (MshC [1]; X=S, X=SO, X=SO2) of the same molecule?
A: The value was “Significant inhibition”.

Q: Which results are given for `CCOCCCNC(=O)c1ccc2c(c1)N(Cc1cccc(Cl)c1)C(=O)c1ccccc1[S+]2[O-]` (stereo not drawn) [Inhibitor 1939]?
A: inhibition of MshC in words, compounds lacking the basic amino group or with groups in excess of 10 carbons on the remote amino residue (MshC [1]): little or no inhibition; IC50 (MshC [1]; IC50, μM): 3200 ± 1000 µM

Q: `CCCCN(CCCNC(=O)c1ccc2c(c1)N(Cc1cccc(Cl)c1)C(=O)c1ccccc1[S+]2[O-])Cc1ccccc1` (stereo not drawn) [Inhibitor 1940] was tested. Which “inhibition of MshC in words, compounds lacking the basic amino group or with groups in excess of 10 carbons on the remote amino residue” value (MshC [1]) did it give?
A: The value was “little or no inhibition”.

Q: And the IC50 (MshC [1]; IC50, μM)?
A: The IC50 was greater than 3000 µM.

Q: `CN(CCc1ccccc1)C(=O)c1ccc2c(c1)N(Cc1cccc(Cl)c1)C(=O)c1ccccc1S2(=O)=O` [Inhibitor 1943] was tested. Which IC50 (MshC [1]; IC50, μM) did it give?
A: The IC50 was greater than 3000 µM.

Q: Which results are given for `O=C(NCC1CCCN1)c1ccc2c(c1)N(Cc1cccc(Cl)c1)C(=O)c1ccccc1S2(=O)=O` (stereo not drawn) [Inhibitor 1947]?
A: inhibition of MshC in words, Z is a benzyl moiety bearing one or more halogens (MshC [1]): Measurable inhibition; inhibition of MshC in words, compounds grouped by X (MshC [1]): Significant inhibition; IC50 (MshC [1]; IC50, μM): 2300 ± 300 µM

Q: Which results are given for `O=C(NCCCN1CCC(Cc2ccccc2)CC1)c1ccc2c(c1)N(Cc1cccc(Cl)c1)C(=O)c1ccccc1S2(=O)=O` [Inhibitor 1949]?
A: inhibition of MshC in words, compounds lacking the basic amino group or with groups in excess of 10 carbons on the remote amino residue (MshC [1]): little or no inhibition; IC50 (MshC [1]; IC50, μM): > 3000 µM

Q: Which results are given for `CCC1CCCCN1CCCNC(=O)c1ccc2c(c1)N(Cc1cccc(Cl)c1)C(=O)c1ccccc1S2(=O)=O` (stereo not drawn) [Inhibitor 1954]?
A: inhibition of MshC in words, 1,3-diaminopropyl residue with remote amino residue capable of protonation (MshC [1]): measurable inhibition; inhibition of MshC in words, Z is a benzyl moiety bearing one or more halogens (MshC [1]): Measurable inhibition; IC50 (MshC [1]; IC50, μM): 1100 ± 200 µM; inhibition of MshC in words, compounds grouped by X (MshC [1]; X=S, X=SO, X=SO2): Significant inhibition

Q: `O=C(NCCCSC1CCCCC1)c1ccc2c(c1)N(Cc1cccc(Cl)c1)C(=O)c1ccccc1S2(=O)=O` [Inhibitor 1964] was tested. Which “inhibition of MshC in words, compounds lacking the basic amino group or with groups in excess of 10 carbons on the remote amino residue” value (MshC [1]) did it give?
A: The value was “little or no inhibition”.

Q: And the IC50 (MshC [1]; IC50, μM)?
A: The IC50 was greater than 3000 µM.

Q: For `CCCCN(C)CCCNC(=O)c1ccc2c(c1)N(Cc1cccc(Cl)c1)C(=O)c1ccccc1S2(=O)=O` [Inhibitor 1965], which “inhibition of MshC in words … of protonation” value (MshC [1]) is on record?
A: Its value is “measurable inhibition”.

Q: What about the “inhibition of MshC in words, Z is a benzyl moiety bearing one or more halogens” value (MshC [1]) of the same molecule?
A: Its value is “Measurable inhibition”.

Q: And the IC50 (MshC [1]; IC50, μM)?
A: The IC50 was 1700 ± 300 µM.

Q: What about the “inhibition of MshC in words … by X” value (MshC [1]; X=S, X=SO, X=SO2) of the same molecule?
A: Its value is “Significant inhibition”.

Q: Which IC50 (MshC [1]; IC50, μM) does the source give for `CCN(C(=O)c1ccc2c(c1)N(Cc1cccc(Cl)c1)C(=O)c1ccccc1S2(=O)=O)c1ccccc1` [Inhibitor 1966] here?
A: The IC50 was greater than 3000 µM.

Q: With `COC(=O)c1cc2c(cc1NC(=O)c1ccc3c(c1)N(Cc1cccc(Cl)c1)C(=O)c1ccccc1[S+]3[O-])OCCO2` (stereo not drawn) [Inhibitor 1984] as the molecule, how does the IC50 (MshC [1]; IC50, μM) read?
A: Its IC50 is greater than 3000 µM.

Q: How did the IC50 (MshC [1]; IC50, μM) turn out when `COC(=O)c1cc(NC(=O)c2ccc3c(c2)N(Cc2cccc(Cl)c2)C(=O)c2ccccc2[S+]3[O-])cc(C(=O)OC)c1` (stereo not drawn) [Inhibitor 1986] was run?
A: The IC50 was greater than 3000 µM.

Q: Which results are given for `C[C@H](N)C(=O)O` [L-alanine]?
A: inhibition of the ligase activity, in words (MshC [2]; [4]): very minor inhibition; % inhibition (MshC [2]; [inhibitor] 5000 μM): 4 ± 8%; relative spec. act. (MshC [3]): ≦0.016; activity as alternative substrate to Cys, in words (MshC [3]): Nor was significant activity detected

Q: What does the source list for `N[C@@H](CCS)C(=O)O` [L-homocysteine]?
A: inhibition of the ligase activity, in words (MshC [2]; [4]): very minor inhibition; % inhibition (MshC [2]; [inhibitor] 1600 μM): 0 ± 5%; relative spec. act. (MshC [3]): ≦0.2; activity as alternative substrate to Cys, in words (MshC [3]): Nor was significant activity detected

Q: How did the “inhibition of the ligase activity, in words” value (MshC [2]; [4]) turn out when `CC[C@H](N)C(=O)O` [L-α-aminobutyric acid] was run?
A: The value was “very minor inhibition”.

Q: Which results are given for `CC(=O)N[C@@H](CS)C(=O)N[C@H]1[C@@H](OC2[C@H](O)[C@H](O)C(O)[C@H](O)[C@H]2O)O[C@H](CO)[C@@H](O)[C@@H]1O` (stereo partly drawn) [MSH, 1-D-myo-inosityl 2-(N-acetyl-L-cysteinyl)amido-2-deoxy-α-D-glucopyranoside]?
A: inhibition of the ligase activity, in words (MshC [2]; 1 and 5 mM, physiologic levels): minimal inhibition; % inhibition (MshC [2]; [inhibitor] 1000 μM): 4 ± 3%; % inhibition (MshC [2]; [inhibitor] 5000 μM): 7 ± 5%

Q: `CN(CCCNC(=O)c1ccc2c(c1)N(Cc1cccc(Cl)c1)C(=O)c1ccccc1[S+]2[O-])C1CCCCC1` (stereo not drawn) [NTF1836] was tested. Which IC50 (MshC [1]; 50, 100 and 200 μM in 0.005% Triton X-100, reciprocal plot of velocity versus inhibitor concentration, read-out: IC50) did it give?
A: Its IC50 is roughly 100 µM.

Q: What about the IC50 (MshC [1]; read-out: IC50 for MshC activity in an vitro enzyme assay) of the same molecule?
A: Its IC50 is 100 µM.
